Reference: paper PMC10135964, “One Scaffold, Two Conformations: The Ring-Flip of the Messenger InsP8 Occurs under Cytosolic Conditions” (Biomolecules, 2023)
Entries after “also recorded” stand apart in the source; their conditions may differ. Read-outs that look alike come from different tables or passages of the source.

Key:
[1] = molecular target: T1, yeast VTC2 SPX domain (residues 1–182) (Saccharomyces cerevisiae, UniProt P43585); experiment: Isothermal titration calorimetry of InsP8 binding to the VTC2 SPX domain; conditions: 25 °C, pH 7.4, 150 mM KCl, 40 mM NaCl, mean of three replicates; for Kd: read-out: dissociation constant Kd
T1 construct: The VTC2 SPX domain (residues 1–182) was expressed with a C-terminal His6-tag; His6 (C); made in house
T1 sequence (P43585 1-182): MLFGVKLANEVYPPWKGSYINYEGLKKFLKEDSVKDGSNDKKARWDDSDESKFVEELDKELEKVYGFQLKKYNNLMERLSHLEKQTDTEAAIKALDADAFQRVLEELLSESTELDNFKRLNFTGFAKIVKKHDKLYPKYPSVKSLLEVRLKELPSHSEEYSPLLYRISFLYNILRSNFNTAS
Description: The VTC2 SPX domain (residues 1–182) was expressed with a C-terminal His6-tag and purified by Ni-affinity and size-exclusion chromatography, as previously published.
Protein stocks were diluted to 300 µL with final buffer conditions: 25 mM HEPES pH 7.4, 150 mM KCl, 40 mM NaCl, 0.5 mM TCEP (ITC buffer). The exact protein concentration for each replicate was determined separately by Bradford assay. InsP8 was diluted to 500 µM in ITC buffer. For binding experiments in the presence of magnesium ions, both dilution buffers were supplemented with MgCl2 to give a final concentration of 1 mM after dilution.
ITC experiments were carried out at 25 °C in a MicroCal PEAQ-ITC calorimeter (Malvern Panalytical GmbH, Kassel, Germany), with ca. 50 µM protein in the cell and 500 µM ligand in the syringe. InsP8 was titrated into the solution in nineteen 2 µL-steps. Spacing between injections was 150 s.
The corresponding instrument software (MicroCal PEAQ-ITC Analysis) was used for baseline correction, peak integration, data fitting and determination of binding parameters.

[2] = 1H,13C BIRD-HMQC NMR quantification of axial vs. equatorial conformer; assay type: physicochemical; conditions: 50 µM, 130 mM KCl, 10 mM NaCl, 4 °C
Description: Samples for HMQC-NMR studies contained 50 µM ^13C6-labeled InsPs (InsP6/5PP-InsP5/InsP8), 2 mM bis-tris-propane, 130 mM KCl, 10 mM NaCl and 0/50/250 µM MgCl2 in D2O.
BIRD-HMQC NMR spectra were recorded at 277 K and 600 MHz (^1H frequency) on a Bruker AV-III NMR spectrometer (Bruker Biospin, Rheinstetten, Germany) using cryogenically cooled 5 mm QCI-triple resonance probe equipped with one-axis self-shielded gradients. The spectrometer was operated using topspin 3.5 pl6 software. Instrument temperature was calibrated against […] according to Findeisen et al.. Acquisition parameters were SW(^13C): 60–90 ppm, NS: 128, TD(^13C): 64.
BIRD-HMQC spectra were recorded at 277 K as described above, with samples containing 200 µM InsPs, 130 mM KCl, 10 mM NaCl, 2mM BTP in D2O. pH was set to pH* 9.5 for InsP6, pH* 8.8 for 5PP-InsP5 and pH* 8.5 for InsP8 (pH = 0.929 × pH* + 0.42 [35]). NOESY-HMQC spectra of the same samples were subsequently recorded using mixing times of 80 ms for InsP6 and 5PP-InsP5 and 200 ms for InsP8. Conformational exchange on the time-scale of the experiment created cross-peaks between corresponding peaks in different conformations, which allowed us to assign each peak of the equatorial conformer to its axial counterpart.

[3] = Van't Hoff thermodynamic analysis of InsP8 conformational equilibrium; assay type: physicochemical; conditions: 10 mM NaCl; for ΔH^0 of eq. to ax. conformational transition / ΔS^0 of eq. to ax. conformational transition: 50 µM InsP8, pH* 7.5, 130 mM KCl
Description: BIRD-HMQC NMR spectra were recorded as described above, at 274–283 K in 1 K steps, two replicate samples per condition. Instrument temperature was calibrated against d4-methanol according to Findeisen et al..
Samples contained 50 µM InsP8, 5 mM HEPES pH* 7.5 (pH set on ice), 130 mM KCl, 10 mM NaCl, and either 100 µM or 250 µM MgCl2. Acquisition parameters were SW(^13C): 62–82 ppm, NS: 2048, TD(^13C): 16.
The best-isolated peaks (the 2-peak of ax. and 1-peak of eq. conformer) were integrated, subtracting 1PP-InsP5 impurities. The ax./eq. ratio (i.e., equilibrium constant K for the eq. to ax. transition) was plotted against 1/T, where T is temperature in Kelvin.
ΔH^0 and ΔS^0 were calculated from the regression line. Two replicates were combined for the linear regression.

ΔH of binding ([1]; 1 mM MgCl2): -5.9 kcal/mol
−TΔS of binding ([1]; 1 mM MgCl2): -3.3 kcal/mol
Kd ([1]; 1 mM MgCl2): 0.205 µM
ΔH of binding ([1]; without divalent ions): -3.5 kcal/mol
−TΔS of binding ([1]; without divalent ions): -5.2 kcal/mol
Kd ([1]; without divalent ions): 0.373 µM
proportion in axial conformation ([2]; pH* 7.5 (=pH 7.4), 1 equiv. Mg2+): about 10%
proportion in axial conformation ([2]; pH* 8.5, without divalent cations): about half
ΔH^0 of eq. to ax. conformational transition ([3]; 2 equiv. MgCl2, 274–283 K): -17.1 ± 2.1 kcal/mol
ΔS^0 of eq. to ax. conformational transition ([3]; 2 equiv. MgCl2, 274–283 K): −0.063 ± 0.008 kcal/(mol·K)
ΔH^0 of eq. to ax. conformational transition ([3]; 5 equiv. MgCl2, 274–283 K): -7.2 ± 1.9 kcal/mol
ΔS^0 of eq. to ax. conformational transition ([3]; 5 equiv. MgCl2, 274–283 K): −0.025 ± 0.007 kcal/(mol·K)
axial conformer estimated at 37 °C (Gibbs-Helmholtz equation) ([3]; 2 equiv. Mg2+, pH* 7.5, 130 mM KCl): about 2%
axial conformer predicted at 37 °C (310 K) ([3]; 5 equiv. Mg2+, pH* 7.5, 130 mM KCl): 29%
SMILES: O=P(O)(O)O[C@@H]1[C@@H](OP(=O)(O)O)[C@H](OP(=O)(O)OP(=O)(O)O)[C@@H](OP(=O)(O)O)[C@H](OP(=O)(O)OP(=O)(O)O)[C@@H]1OP(=O)(O)O [InsP8, 1,5(PP)2-InsP4]
proportion in axial conformation ([2]; pH* 7.5, 5 equiv. Mg2+): about half; also recorded: almost equally distributed between its axial and equatorial forms
